For 13 molecules, IC95, IC50 and Cmax results are on record in ChEMBL document CHEMBL1128025, “Synthesis and evaluation of pyridyl analogs of L-735,524: Potent HIV-1 protease inhibitors” (Bioorg Med Chem Lett, 1994).

Series [1] deals with Human immunodeficiency virus. The experiment in a line: Compound was tested for cellulr inhibition of HIV was determined; Range is 6-12. Particulars: Human immunodeficiency virus 1. Format: functional.
The target of series [2] is Human immunodeficiency virus type 1 protease (Human immunodeficiency virus 1, UniProt Q72874). Nature of the series: Inhibition of Human Immunodeficiency virus-1 protease.
A short description of series [3]: Concentration maxima after oral dosing in dogs. The note with it: dog, in vivo. On the set-up: route oral. Format: ADME, organism-based, Canis lupus familiaris.
Series [4] concerns Human immunodeficiency virus. Nature of the series: Compound was tested for cellulr inhibition of HIV was determined. Particulars: Human immunodeficiency virus 1. Format: functional.
In series [5] the test system is Human immunodeficiency virus. The experiment in a line: Compound was tested for cellulr inhibition of HIV was determined; Range is 25-50. Format: functional. Particulars: Human immunodeficiency virus 1.
The test system of series [6] is Human immunodeficiency virus. The experiment in a line: Compound was tested for cellulr inhibition of HIV was determined; Range is 12-25. The note with it: Human immunodeficiency virus 1. Format: functional.

The term IC95 denotes the point of the concentration-response curve where the effect stands at 95%. By IC50 is commonly meant the point on the concentration scale where inhibition reaches its midpoint. The term Cmax denotes the maximum level reached in the sampled fluid or tissue.

Some results are limits rather than exact numbers.

Regarding `CC(C)(C)NC(=O)[C@@H]1CN(Cc2cc3sccc3s2)CCN1C[C@@H](O)C[C@@H](Cc1ccncc1)C(=O)N[C@H]1c2ccccc2C[C@H]1O`, in series [1], it took 12 nM to reach the 95% level (IC95). Moreover, in series [2], the IC50 is 0.05 nM. The molecule further showed a Cmax in series [3] of 1590 nM.

In turn, `CC(C)(C)NC(=O)[C@@H]1CN(Cc2cccnc2)CCN1C[C@@H](O)C[C@@H](Cc1ccccc1)C(=O)N[C@H]1c2ccccc2C[C@H]1O` [INDINAVIR] yielded an IC95 in series [4] of 50 nM.

On to `CC(C)(C)NC(=O)[C@@H]1CN(Cc2cc(Br)cs2)CCN1C[C@@H](O)C[C@@H](Cc1cccnc1)C(=O)N[C@H]1c2ccccc2C[C@H]1O`, for which the 95% effect level in series [4] (IC95) was put at 25 nM. In series [2], this molecule returned an IC50 of 0.03 nM. Also, in series [3], the highest level (Cmax) was 633 nM.

In the case of `CC(C)(C)NC(=O)[C@@H]1CN(Cc2c(F)cccc2F)CCN1C[C@@H](O)C[C@@H](Cc1cccnc1)C(=O)N[C@H]1c2ccccc2C[C@H]1O`, in series [4], the 95% effect level (IC95) was put at 12.2 nM. This molecule also gave an IC50 in series [2] of 0.14 nM. The Cmax in series [3] is 1010 nM.

With `CC(C)(C)NC(=O)[C@@H]1CN(Cc2c(F)cccc2F)CCN1C[C@@H](O)C[C@@H](Cc1ccncc1)C(=O)N[C@H]1c2ccccc2C[C@H]1O`, the 95% effect level in series [5] (IC95) was put at 50 nM. Further, the IC50 in series [2] was found to be 0.48 nM. In addition, the Cmax in series [3] worked out at 8060 nM.

In series [4], `CC(C)(C)NC(=O)[C@@H]1CN(Cc2cccnc2)CCN1C[C@@H](O)C[C@@H](Cc1cccnc1)C(=O)N[C@H]1c2ccccc2C[C@H]1O` yielded an IC95 above 200 nM. The same molecule came in with an IC50 in series [2] of 1.7 nM.

With `CC(C)(C)NC(=O)[C@@H]1CN(Cc2cc(Br)cs2)CCN1C[C@@H](O)C[C@@H](Cc1ccncc1)C(=O)N[C@H]1c2ccccc2C[C@H]1O`, the IC95 in series [6] came out at 25 nM. Further, the IC50 in series [2] worked out at 0.11 nM. In series [3], this molecule gave a Cmax of 2200 nM.

For `CC(C)(C)NC(=O)[C@@H]1CN(Cc2cccnc2)CCN1C[C@@H](O)C[C@@H](Cc1ccncc1)C(=O)N[C@H]1c2ccccc2C[C@H]1O`, in series [4], the IC95 was above 200 nM. Further, the IC50 in series [2] was 1.7 nM. In series [3], this molecule had a Cmax of 414 nM.

In series [4], `CC(C)(C)NC(=O)[C@@H]1CN(S(=O)(=O)c2cccc3cccnc23)CCN1C[C@@H](O)C[C@@H](Cc1cccnc1)C(=O)N[C@H]1c2ccccc2C[C@H]1O` showed an IC95 above 200 nM. For the same molecule, the concentration for half-maximal inhibition (IC50) in series [2] was 0.03 nM.

In turn, `CC(C)(C)NC(=O)[C@@H]1CN(Cc2cc3sccc3s2)CCN1C[C@@H](O)C[C@@H](Cc1cccnc1)C(=O)N[C@H]1c2ccccc2C[C@H]1O` returned an IC95 in series [1] of 12 nM. In series [2], this molecule showed an IC50 of 0.09 nM. This molecule also had a Cmax in series [3] of 3290 nM.

As to `CC(C)(C)NC(=O)[C@@H]1CN(Cc2cc3ccsc3s2)CCN1C[C@@H](O)C[C@@H](Cc1ccncc1)C(=O)N[C@H]1c2ccccc2C[C@H]1O`, in series [1], the IC95 worked out at 12 nM. The same molecule had a half-inhibitory concentration (IC50) in series [2] of 0.06 nM. The Cmax in series [3] is 1730 nM.

As to `CC(C)(C)NC(=O)[C@@H]1CN(Cc2cc3ccsc3s2)CCN1C[C@@H](O)C[C@@H](Cc1cccnc1)C(=O)N[C@H]1c2ccccc2C[C@H]1O`, in series [1], the 95% effect level (IC95) was put at 12 nM. The molecule also had an IC50 in series [2] of 0.12 nM. In series [3], this molecule gave a Cmax of 7290 nM.

Take `CC(C)(C)NC(=O)[C@@H]1CN(S(=O)(=O)c2cccc3cccnc23)CCN1C[C@@H](O)C[C@@H](Cc1ccncc1)C(=O)N[C@H]1c2ccccc2C[C@H]1O`: it took 200 nM to reach the 95% level in series [4] (IC95). In series [2], this molecule yielded a 50% inhibitory concentration (IC50) of 0.015 nM.
